ED50 and LD50 data for 6 compounds are collected here from patent publication US4088772A, “Methanodibenzocycloheptapyrroles” (E. I. Du Pont de Nemours and Company, priority 1975, dated 1978).

Structures can show the parent of a compound that is named as a salt. Where two headings read alike, the source gives them in different places. A value given as a limit tells only on which side of the number the result lay.

Data set [1] deals with female white mice. As to the kind of experiment: animal or person. Particulars: Mus musculus, po, oral, mice.
A short description of data set [2]: in vivo. Particulars: mouse, in vivo, po.
Data set [3] relates to phenylquinone-induced writhing. As to the kind of experiment: Phenylquinone writhing test (analgesia). It is filed as in vivo, mouse (Carworth CF1 S female). Particulars: Mus musculus, po, Table III, mice. From the text:
This mouse test is predictive of analgesic response in humans. [E. Siegmund, R. Cadmus and G. Lee, Proc. Soc.
ED50 values were obtained graphically from the data.

Setting [4] is: read-out: Catatonia ED50, Table III.
The mark [5] stands for this setting: read-out: Exploratory Loss Visual ED50, Table III.
Setting [6] is: read-out: Muscle Tone ED50, Table III.
Where [7] appears, read: read-out: Ptosis ED50, Table III.
[8] abbreviates: read-out: Reflexes Grip ED50, Table III.
The mark [9] stands for this setting: read-out: Reflexes Lift ED50, Table III.
The mark [10] stands for this setting: read-out: Reflexes Pinna ED50, Table III.

For the compound `O=Cc1ccc2c(c1)[C@]13C[C@H]2c2ccccc2[C@H]1CN(CC1CCCC1)C3` (relative stereo) [Example 69, 5-Formyl-2-cyclopentylmethyl-2,3,8,12b-tetrahydro-1H-3a,8-methanodibenzo[3,4:6,7]cyclohepta[1,2-c]pyrrole Hydrochloride], the ED50 in data set [1] (setting [4]) was 60 mg/kg; in data set [1] (setting [5]), 60 mg/kg; in data set [1] (setting [6]), 60 mg/kg; in data set [1] (setting [7]) it was 36 mg/kg; in data set [1] (setting [8]), more than 324 mg/kg; in data set [1] (setting [9]), 60 mg/kg. The ED50 in data set [1] (setting [10]) is 20 mg/kg; in data set [3], less than 130 mg/kg. This compound displayed an LD50 at 24 h in data set [2] of more than 324 mg/kg.
In the case of `Brc1ccc2c(c1)[C@]13C[C@H]2c2ccccc2[C@H]1CN(CC1CCCC1)C3` (relative stereo) [Example 70, 5-Bromo-2-cyclopentylmethyl-2,3,8,12b-tetrahydro-1H-3a,8-methanodibenzo[3,4:6,7]cyclohepta[1,2-c]pyrrole Hydrochloride], the ED50 in data set [1] (setting [4]) was 12 mg/kg; in data set [1] (setting [5]), 20 mg/kg; in data set [1] (setting [6]) it was 12 mg/kg; in data set [1] (setting [7]), 7 mg/kg; in data set [1] (setting [8]), more than 324 mg/kg; in data set [1] (setting [9]), 20 mg/kg. The ED50 is 7 mg/kg in data set [1] (setting [10]) and less than 130 mg/kg in data set [3]. Moreover, in data set [2], the LD50 at 24 h was more than 324 mg/kg.
For `CC(=NO)c1ccc2c(c1)[C@]13C[C@H]2c2ccccc2[C@H]1CN(CC1CCCC1)C3` (relative stereo) [Example 71, 5-Acetyl-2-cyclopentylmethyl-2,3,8,12b-tetrahydro-1H-3a,8-methanodibenzo[3,4:6,7]cyclohepta[1,2-c]pyrrole Oxime Hydrochloride], the ED50 in data set [1] (setting [4]) is 100 mg/kg; in data set [1] (setting [5]), 7 mg/kg; in data set [1] (setting [6]) it was 36 mg/kg; in data set [1] (setting [7]), less than 4 mg/kg; in data set [1] (setting [8]), 300 mg/kg; in data set [1] (setting [9]), 60 mg/kg. For the same compound, the ED50 in data set [1] (setting [10]) came to 20 mg/kg; in data set [3] it was 21 mg/kg. In data set [2], the LD50 at 24 h was more than 324 mg/kg.
Consider `Nc1ccc2c(c1)[C@H]1CN(CC3CCCC3)C[C@@]13C[C@@H]2c1ccc(N)cc13` (relative stereo) [Example 72, 5,11-Diamino-2-cyclopentylmethyl-2,3,8,12b-tetrahydro-1H-3a,8-methanodibenzo[3,4:6,7]cyclohepta[1,2-c]pyrrole], for which the ED50 in data set [1] (setting [4]) was determined as 20 mg/kg; in data set [1] (setting [5]), 60 mg/kg; in data set [1] (setting [6]), 36 mg/kg; in data set [1] (setting [8]), 200 mg/kg; in data set [1] (setting [9]), 60 mg/kg; in data set [1] (setting [10]), 20 mg/kg. In data set [3], the ED50 is 7 mg/kg. Besides, in data set [2], the LD50 at 24 h is more than 324 mg/kg.
Regarding `O=C(O)c1ccc2c(c1)[C@]13C[C@H]2c2ccccc2[C@H]1CN(CC1CCCC1)C3` (relative stereo) [Example 73, 2-Cyclopentylmethyl-2,3,8,12b-tetrahydro-1H-3a,8-methanodibenzo[3,4:6,7]cyclohepta[1,2-c]pyrrole-5-carboxylic Acid Hydrochloride], the ED50 was 60 mg/kg in data set [1] (setting [4]); 60 mg/kg in data set [1] (setting [5]); 36 mg/kg in data set [1] (setting [6]); 36 mg/kg in data set [1] (setting [7]); more than 324 mg/kg in data set [1] (setting [8]); 100 mg/kg in data set [1] (setting [9]). Besides, the ED50 in data set [1] (setting [10]) came out at 36 mg/kg; in data set [3], 21 mg/kg. This compound also gave an LD50 at 24 h in data set [2] of more than 324 mg/kg.
Consider `COC(=O)c1ccc2c(c1)[C@]13C[C@H]2c2ccccc2[C@H]1CN(CC1CCCC1)C3` (relative stereo) [Example 74, 2-Cyclopentylmethyl-2,3,8,12b-tetrahydro-1H-3a,8-methanodibenzo[3,4:6,7]cyclohepta[1,2-c]pyrrole-5-carboxylic Acid Hydrochloride, Methyl Ester], for which the ED50 in data set [1] (setting [4]) was 36 mg/kg; in data set [1] (setting [5]), 36 mg/kg; in data set [1] (setting [6]) it was 36 mg/kg; in data set [1] (setting [7]), less than 4 mg/kg; in data set [1] (setting [8]) it was more than 324 mg/kg; in data set [1] (setting [9]), 36 mg/kg. Moreover, the results for the ED50 in data set [1] (setting [10]) and in data set [3] were 7 mg/kg and 11 mg/kg, respectively. The compound further had an LD50 at 24 h in data set [2] of more than 324 mg/kg.
